Experimental data from patent US10316017B2, “COT modulators and methods of use thereof” (Gilead Sciences, Inc., priority 2015, dated 2019).
Where two headings read alike, the source gives them in different places.

What was measured:
[1] = biological target: T1, human Cot catalytic domain (30-397 amino acids) (Homo sapiens, UniProt P41279); assay: High Throughput Cot Biochemical Assay (KinEASE TR-FRET); settings: read-out: IC50 HTRF
T1 construct: Purified recombinant human Cot catalytic domain (30-397 amino acids) was purchased from Cama Biosciences; purchased Cama Biosciences (so in the source)
Summary of the method: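 TR-FRET readout: Eu-labeled phospho-specific antibody binds XL665-tagged STK3 peptide after phosphorylation by Cot (aa 30-397, 5 nM). Conditions: 400 μM ATP, 1 μM peptide, MOPS pH 7.0 buffer with MgOAc, DTT, BSA, NP-40, glycerol; 0.1% DMSO.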

[2] = system: TNFα production in LPS-stimulated human monocytes; assay: Cot Monocyte TNFα Cell Based Assay; settings: Homo sapiens, Monocyte, read-out: EC50 TNF
Summary of the method: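 TR-FRET read-out of total secreted TNFα, normalized as % control (unstimulated = 0%, LPS-stimulated = 100%). Cells (5,000/well) were exposed to compound 1 h at 37 °C, then to 50 pg/ml LPS for a further 4 h.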

[3] = Cot biochemical HTRF (KinEASE TR-FRET) assay
[4] = TNFα in LPS-stimulated human monocytes
[5] = Cot KinEASE TR-FRET, 400 μM ATP
[6] = LPS-stimulated human monocytes, TNFα TR-FRET
[7] = Cot KinEASE TR-FRET (HTRF) biochemical assay, 400 μM ATP

T1 sequence (P41279 30-397): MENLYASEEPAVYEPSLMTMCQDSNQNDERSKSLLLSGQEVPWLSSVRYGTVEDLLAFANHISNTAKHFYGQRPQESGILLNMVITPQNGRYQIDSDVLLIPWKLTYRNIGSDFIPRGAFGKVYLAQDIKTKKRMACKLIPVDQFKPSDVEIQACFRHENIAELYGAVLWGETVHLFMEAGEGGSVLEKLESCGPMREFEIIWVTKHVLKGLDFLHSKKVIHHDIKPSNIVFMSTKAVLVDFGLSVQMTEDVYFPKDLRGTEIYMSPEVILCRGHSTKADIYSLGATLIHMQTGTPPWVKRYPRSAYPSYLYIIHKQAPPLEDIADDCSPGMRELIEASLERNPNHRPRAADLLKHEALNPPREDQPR

Compound | IC50 [1, 3] | EC50 [2, 4] | IC50 [1, 5] | EC50 [2, 6] | IC50 [1, 7]
CC[C@@H](Nc1c(C#N)cnc2c(Cl)cc(N[C@@H](c3cccc(N(C)C(C)=O)c3)c3cn(C4CCN(C(C)(C)C)CC4)nn3)cc12)c1ccccc1 [Example 564, N-(3-((S)-(1-(1-(tert-butyl)piperidin-4-yl)-1H-1,2,3-triazol-4-yl)((8-chloro-3-cyano-4 (((R)-1-phenylpropyl)amino)quinolin-6-yl)amino)methyl)phenyl)-N-methylacetamide] | 1 nM | 68 nM | – | – | –
Cc1c(-c2cn[nH]c2)cccc1[C@H](Nc1cc(C#N)c2ncc(C#N)c(NCC(C)(C)C)c2c1)c1cn(C2(C(F)F)CC2)nn1 [Example 1153, (S)-6-(((1-(1-(difluoromethyl)cyclopropyl)-1H-1,2,3-triazol-4-yl)(2-methyl-3-(1H-pyrazol-4-yl)phenyl)methyl)amino)-4-(neopentylamino)quinoline-3,8-dicarbonitrile] | – | – | 2 nM | 42 nM | –
CN(C)CCCn1cc([C@@H](Nc2cc(Cl)c3ncc(C#N)c(Nc4ccc(F)c(Cl)c4)c3c2)c2ccccc2)nn1 [Example 797, (S)-8-chloro-4-((3-chloro-4-fluorophenyl)amino)-6-(((1-(3-(dimethylamino)propyl)-1H-1,2,3-triazol-4-yl)(phenyl)methyl)amino) quinoline-3-carbonitrile] | 3 nM | 107 nM | – | – | –
N#Cc1cnc2c(Cl)cc(N[C@@H](c3ccc(F)cc3)c3c[nH]nn3)cc2c1N[C@H](CO)c1ccccc1 [Example 433, 8-chloro-6-(((S)-(4-fluorophenyl)(1H-1,2,3-triazol-4-yl)methyl)amino)-4-(((S)-2-hydroxy-1-phenylethyl)amino)quinoline-3-carbonitrile] | 31 nM | 1380 nM | – | – | –
Cc1cc(C#N)ccc1[C@H](Nc1cc(Cl)c2ncc(C#N)c(NCC(C)(C)C)c2c1)c1cn(C2(C(F)F)CC2)nn1 [Example 1098, (S)-8-chloro-6-(((4-cyano-2-methylphenyl)(1-(1-(difluoromethyl)cyclopropyl)-1H-1,2,3-triazol-4-yl)methyl)amino)-4-(neopentylamino)quinoline-3-carbonitrile] | – | – | 23 nM | 73 nM | –
CC(C)n1cc([C@@H](Nc2cc(Cl)c3ncc(C#N)c(N[C@H](C)c4ccccc4)c3c2)c2cccc(C(=O)N(C)C)c2)nn1 [Example 579, 3-((S)-((8-chloro-3-cyano-4-(((R)-1-phenylethyl)amino)quinolin-6-yl)amino)(1-isopropyl-1H-1,2,3-triazol-4-yl)methyl)-N,N-dimethylbenzamide] | 8 nM | 713 nM | – | – | –
C[C@H](CNc1c(C#N)cnc2c(Cl)cc(N[C@@H](c3ccc(Cl)cc3)c3cn(C4CCN(C(C)(C)C)CC4)nn3)cc12)c1ccccc1 [Example 658, 6-(((S)-(1-(1-(tert-butyl)piperidin-4-yl)-1H-1,2,3-triazol-4-yl)(4-chlorophenyl)methyl)amino)-8-chloro-4-(((S)-2-phenylpropyl)amino)quinoline-3-carbonitrile] | 27 nM | 12200 nM | – | – | –
N#Cc1cnc2c(Cl)cc(N[C@@H](c3ccc(F)cc3)c3c[nH]nn3)cc2c1Nc1ccc(F)nc1 [Example 374, (S)-8-chloro-6-(((4-fluorophenyl)(1H-1,2,3-triazol-4-yl)methyl)amino)-4-((6-fluoropyridin-3-yl)amino)quinoline-3-carbonitrile] | – | 3840 nM | – | – | 161 nM
CC(C)(C)N1CCC(n2cc([C@@H](Nc3cc(Cl)c4ncc(C#N)c(Nc5ccc(F)c(Cl)c5)c4c3)c3cccc(C(=O)O)c3)nn2)CC1 [Compound 19] | – | 18000 nM | – | – | 5 nM

More lines, now with the values ahead:

IC50 [1, 3] | EC50 [2, 4] | IC50 [1, 5] | EC50 [2, 6] | IC50 [1, 7] | Compound
– | – | 33 nM | 103 nM | – | [2H][C@](Nc1cc(C#N)c2ncc(C#N)c(NCC(C)(C)C)c2c1)(c1ccc(F)cc1)c1cn(-c2cccnc2)nn1 [Example 994, (S)-6-(((4-fluorophenyl)(1-(pyridin-3-yl)-1H-1,2,3-triazol-4-yl)methyl-d)amino)-4-(neopentylamino) quinoline-3,8-dicarbonitrile]
95 nM | 5350 nM | – | – | – | C[C@@H](CNc1c(C#N)cnc2c(Cl)cc(N[C@@H](c3ccc(Cl)cc3)c3cn(C4CCN(C(C)(C)C)CC4)nn3)cc12)c1ccccc1 [Example 659, 6-(((S)-(1-(1-(tert-butyl)piperidin-4-yl)-1H-1,2,3-triazol-4-yl)(4-chlorophenyl)methyl)amino)-8-chloro-4-(((R)-2-phenylpropyl)amino)quinoline-3-carbonitrile]
7240 nM | 5900 nM | – | – | – | CC(C)(C)N1CCC(n2cc([C@@H](Nc3cc(Cl)c4ncc(C#N)c(Nc5ccc6c(cnn6Cc6ccccc6)c5)c4c3)c3ccc(Cl)cc3)nn2)CC1 [Example 686, (S)-4-((1-benzyl-1H-indazol-5-yl)amino)-6-(((1-(1-(tert-butyl)piperidin-4-yl)-1H-1,2,3-triazol-4-yl)(4-chlorophenyl)methyl)amino)-8-chloroquinoline-3-carbonitrile]
– | > 1000 nM | – | – | 17 nM | CC(C)(C)CNc1c(C#N)cnc2c(Br)cc(N[C@@H](c3cccc(C(=O)O)c3)c3cn(C4CC4)nn3)cc12 [Compound 60]
– | 960 nM | – | – | 72 nM | [2H][C@](Nc1cc(Cl)c2ncc(C#N)c(N[C@@H](c3ccccc3)[C@@H]3C[C@H]3C#N)c2c1)(c1ccc(F)cc1)c1cn(C2CC2)nn1 [Example 111, 8-chloro-4-(((R)-((1R,2R)-2-cyanocyclopropyl) (phenyl)methyl)amino)-6-(((S)-(1-cyclopropyl-1H-1,2,3-triazol-4-yl)(4-fluorophenyl)methyl-d)amino)quinoline-3-carbonitrile]
3 nM | 305 nM | – | – | – | N#Cc1cnc2c(Cl)cc(N[C@@H](c3cccc(-c4ncco4)c3)c3cn(C4CC4)nn3)cc2c1Nc1cnc(F)c(F)c1 [Example 450, (S)-8-chloro-6-(((1-cyclopropyl-1H-1,2,3-triazol-4-yl)(3-(oxazol-2-yl)phenyl)methyl)amino)-4-((5,6-difluoropyridin-3-yl)amino)quinoline-3-carbonitrile]
– | 318 nM | – | – | 30 nM | CC[C@@H](Nc1c(C#N)cnc2c(Cl)cc(N[C@@H](c3ccc(F)cc3)c3cn(-c4ccncc4)nn3)cc12)c1ccccc1 [Example 390, 8-chloro-6-(((S)-(4-fluorophenyl)(1-(pyridin-4-yl)-1H-1,2,3-triazol-4-yl)methyl)amino)-4-(((R)-1-phenylpropyl)amino)quinoline-3-carbonitrile]
– | 877 nM | – | – | 154 nM | [2H][C@](Nc1cc(Cl)c2ncc(C#N)c(Nc3cnc(F)c(F)c3)c2c1)(c1ccc(F)cc1)c1cn(C2(C(F)(F)F)CC2)nn1 [Example 371, (S)-8-chloro-4-((5,6-difluoropyridin-3-yl)amino)-6-(((4-fluorophenyl)(1-(1-(trifluoromethyl)cyclopropyl)-1H-1,2,3-triazol-4-yl)methyl-d)amino)quinoline-3-carbonitrile]
– | 571 nM | – | – | 33 nM | Cn1cc(C(Nc2cc(Br)c3ncc(C#N)c(Nc4ccc(F)c(Cl)c4)c3c2)c2ccc(F)cc2)nn1 (stereo not drawn) [Compound 8, 8-bromo-4-((3-chloro-4-fluorophenyl)amino)-6-(((4-fluorophenyl) (1-methyl-1H-1,2,3-triazol-4-yl)methyl)amino) quinoline-3-carbonitrile]
